Measurements reported in PubChem BioAssay (NCI).
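All cell lines were grown in 96-well plates and treated with compound for 48 hours. The concentration for 50% growth inhibition is given as GI50. TGI: total growth inhibition.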

Legend:
Assay in all cases: inhibition of tumour cell growth, NCI panel, 48 h
[1] = tested on: 786-0 renal
[2] = tested on: ACHN renal
[3] = tested on: HOP-62 NSCLC
[4] = tested on: LOX IMVI melanoma
[5] = tested on: OVCAR-3 ovarian
[6] = tested on: OVCAR-8 ovarian
[7] = tested on: RPMI-8226 leukemia
[8] = tested on: SF-268 CNS
[9] = tested on: SK-MEL-2 melanoma
[10] = tested on: SNB-19 CNS

| SMILES | GI50 [1] | TGI [1] | GI50 [2] | TGI [2] | GI50 [3] | TGI [3] | GI50 [4] | TGI [4] | GI50 [5] | TGI [5] | GI50 [6] | TGI [6] | GI50 [7] | TGI [7] | GI50 [8] | TGI [8] | GI50 [9] | TGI [9] | GI50 [10] | TGI [10] |
| --- | --- | --- | --- | --- | --- | --- | --- | --- | --- | --- | --- | --- | --- | --- | --- | --- | --- | --- | --- | --- |
| COc1ccc(C2SCC(=O)N2NC(=O)C(O)c2ccccc2)cc1OC (configuration not stated) | > 100 µM | > 100 µM | > 100 µM | > 100 µM | > 100 µM | > 100 µM | > 100 µM | > 100 µM | > 100 µM | > 100 µM | > 100 µM | > 100 µM | > 100 µM | > 100 µM | > 100 µM | > 100 µM | > 100 µM | > 100 µM | > 100 µM | > 100 µM |
| CCCNCCCC(NC(C)=O)C(=O)NCc1ccccc1 (configuration not stated) |  | > 100 µM |  | > 100 µM |  | > 100 µM |  | > 100 µM |  | > 100 µM |  | > 100 µM |  | > 100 µM |  | > 100 µM |  | > 100 µM |  | > 100 µM |
| O=[N+]([O-])c1ccc(S(=O)Cc2ccccc2)c([N+](=O)[O-])c1 (configuration not stated) | 4.91 µM | 17.3 µM | 1.62 µM | 3.07 µM | 11.6 µM | 23.8 µM | 1.6 µM | 2.94 µM | 1.84 µM | 3.24 µM | 3.02 µM | 10.5 µM | 1.89 µM | 4.46 µM | 13.4 µM | 26.6 µM | 8.54 µM | 22.3 µM | 14 µM | 27.6 µM |
| CCCCCCCNc1nc(C(=O)OCC)ncc1-c1ccc(C(F)(F)F)cc1 | 39.3 µM | > 100 µM | 32 µM | > 100 µM | 55.7 µM | > 100 µM | 40.9 µM | > 100 µM | 32.6 µM | > 100 µM | 40.2 µM | > 100 µM | 17.8 µM | 66.9 µM | 48.2 µM | > 100 µM | 26.6 µM | 66.7 µM | 33.4 µM | > 100 µM |
| O=C1c2ccc([N+](=O)[O-])cc2-c2c1c1ccccc1c(=O)n2CCCNCCCNCCCn1c2c(c3ccc([N+](=O)[O-])cc3c1=O)C(=O)c1ccccc1-2 | 1.2 µM | 7.21 µM | 4.26 µM | 15.9 µM | 1.85 µM | 12.4 µM | 2.7 µM | 16 µM | 2.2 µM | 6.16 µM | 0.31 µM | 2.32 µM | 0.258 µM | 0.82 µM | 0.988 µM | 12.8 µM | 17.3 µM | 62.3 µM | 0.985 µM | 6.54 µM |
| COc1ccc(N2Cc3cnc(Nc4ccccc4)nc3N([C@@H]3CC[C@@H](O)C3)C2=O)cc1 | 3.08 µM | > 25 µM | 0.984 µM | > 25 µM | 8.87 µM | > 25 µM | 1.14 µM | 5.17 µM | 10.9 µM | > 25 µM | 4.86 µM | > 25 µM | 5.72 µM | > 25 µM | 5.05 µM | > 25 µM | 5.21 µM | 17.5 µM | 11.9 µM | > 25 µM |
| O=c1[nH]c(=O)n([C@@H]2C[C@H](CO)[C@H](O)C2)cc1/C=C/Br |  | > 100 µM |  | > 100 µM |  | > 100 µM |  | > 100 µM |  | > 100 µM |  | > 100 µM |  | > 100 µM |  | > 100 µM |  | > 100 µM |  | > 100 µM |
| CC(=O)NNc1nc(C)c(C(=O)NNC(=O)C(=O)Nc2c(C)cccc2C)s1 |  | > 100 µM |  | > 100 µM |  | > 100 µM |  | > 100 µM |  | 65.3 µM |  | 80.1 µM |  | > 100 µM |  | > 100 µM |  | > 100 µM |  | > 100 µM |
| COc1ccccc1N=C(N)N/N=C/c1c[nH]c2ccccc12 |  | 26 µM |  | 22 µM |  | 30.2 µM |  | 22.6 µM |  | 25.7 µM |  | 28.2 µM |  | 32.1 µM |  | 29.1 µM |  | 19.2 µM |  | 28.6 µM |
| CC(C)=CCC/C(C)=C/CC/C(C)=C/Cc1c(O)c2ccccc2oc1=O |  | > 100 µM |  | > 100 µM |  | > 100 µM |  | > 100 µM |  | > 100 µM |  | > 100 µM |  | > 100 µM |  | > 100 µM |  | > 100 µM |  | > 100 µM |
| COc1cc2c(c(OC)c1OC)-c1ccc(N)c(=O)cc1[C@@H](NC(C)=O)CC2 | 0.108 µM | > 100 µM | 0.152 µM | > 100 µM | 0.0426 µM | > 100 µM | 0.0256 µM | > 100 µM | < 0.012 µM | 0.0362 µM | 0.0477 µM | > 100 µM | 0.0456 µM | > 100 µM | 0.0339 µM | > 100 µM | < 0.01 µM | 0.0353 µM | 0.914 µM | > 100 µM |
| Cc1c(S(C)(=O)=O)c(-c2cc(F)cc(N3CCN(c4ccc(NS(=O)(=O)c5ccc(N[C@H](CCN6CCC(C(=O)OCCCP(=O)(O)O)CC6)CSc6ccccc6)c(S(=O)(=O)C(F)(F)F)c5)cc4)CC3)c2)c(-c2ccc(Cl)cc2)n1C(C)C | > 100 µM | > 100 µM | > 100 µM | > 100 µM | > 100 µM | > 100 µM | > 100 µM | > 100 µM | > 100 µM | > 100 µM | > 100 µM | > 100 µM | 1.29 µM | > 100 µM | > 100 µM | > 100 µM | > 100 µM | > 100 µM | 68.1 µM | > 100 µM |
| CN1CCN(c2ccc(NC(=O)c3nc4ccc5[nH]ncc5c4c4c3CCCC4)cc2C(F)(F)F)CC1 | 0.841 µM | 1.52 µM | 0.857 µM | 1.55 µM | 0.918 µM | 1.89 µM | 0.836 µM | 1.55 µM | 0.939 µM | 1.81 µM | 0.921 µM | 1.91 µM | 0.966 µM | 2.3 µM | 3.89 µM | 19.3 µM | 7.33 µM | 19.1 µM | 1.39 µM | 4.58 µM |
| COc1ccc(-c2cc(=O)c3c(C)cc(C)nc3[nH]2)cc1 | 58.8 µM | > 100 µM |  | > 100 µM |  | > 100 µM |  | > 100 µM | 32.7 µM | > 100 µM |  | > 100 µM |  | 54.6 µM |  | > 100 µM |  | > 100 µM |  | > 100 µM |
